The source of these data is patent US10150755B2, “ASK1 inhibitor compounds and uses thereof” (Seal Rock Therapeutics, Inc., priority 2017, dated 2018).

A value given as a limit tells only on which side of the number the result lay.

Chain of ASK1 (Q99683 649-946 limits assumed): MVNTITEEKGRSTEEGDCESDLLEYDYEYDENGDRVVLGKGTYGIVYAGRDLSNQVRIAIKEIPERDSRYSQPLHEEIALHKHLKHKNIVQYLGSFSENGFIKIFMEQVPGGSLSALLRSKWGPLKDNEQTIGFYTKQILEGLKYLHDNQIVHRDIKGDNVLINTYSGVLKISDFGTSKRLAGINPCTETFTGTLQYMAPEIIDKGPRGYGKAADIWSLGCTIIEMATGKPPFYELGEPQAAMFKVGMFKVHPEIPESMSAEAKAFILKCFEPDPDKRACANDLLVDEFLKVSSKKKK

This test has as its target ASK1 (Homo sapiens (Human), UniProt Q99683). Kind of test: ASK1 Kinase Assay (Promega ASK1 Kinase Enzyme System, ADP-Glo). In kind it is biochemical. Conditions: enzyme 50 nM, ATP 10 μM. Here is the method: The ASK1 enzymatic assay was run following Promega ASK1 Kinase Enzyme System (Cat #V3881). The kit provides the protocol, enzymes and all reagents necessary to run an assay. Firstly, the compounds, enzyme, substrate and ATP were diluted in provided assay buffer. The final concentration of the enzyme was 50 nM, substrate (Myelin basic protein) 1 μg/ml and ATP 10 μM. The compound and the enzyme were pre-incubated in a 384 well white solid bottom plate (Greiner, Cat#784075) for 10 minutes. After incubation, the substrate and ATP were added and incubated for further 60 minutes. After 60 minutes, ADP-Glo™ was added and plate was incubated for another 40 minutes. After 40 minutes, Kinase Detection Reagent was added and the plate was incubated for 45 minutes. After 45 minutes, plate was read on Perkin Elmer EnVision using luminescence read (0.5 seconds/well).
For orientation: ADP-Glo first removes unused ATP, then detects ADP through luciferase.
One may read the IC50 as the concentration that inhibits the measured activity by half. `CNC(=O)c1ccc2c(c1)CN(c1cccc(-c3nncn3C3CC3)n1)C2=O` [Compound 3, 2-(6-(4-cyclopropyl-4H-1,2,4-triazol-3-yl)pyridin-2-yl)-N-methyl-1-oxoisoindoline-5-carboxamide] displayed an IC50 of less than 0.2 µM.
`COCCNC(=O)c1ccc2c(c1)CN(c1cccc(-c3nncn3C3CC3)n1)C2=O` [Compound 4, 2-(6-(4-cyclopropyl-4H-1,2,4-triazol-3-yl)pyridin-2-yl)-N-(2-methoxyethyl)-1-oxoisoindoline-5-carboxamide] registered an IC50 of less than 0.2 µM.
The compound `O=C(NCCn1ccnc1)c1ccc2c(c1)CN(c1cccc(-c3nncn3C3CC3)n1)C2=O` [Compound 5, N-(2-(1H-imidazol-1-yl)ethyl)-2-(6-(4-cyclopropyl-4H-1,2,4-triazol-3-yl)pyridin-2-yl)-1-oxoisoindoline-5-carboxamide] displayed an IC50 of less than 0.2 µM.
For the compound `O=C1c2ccc(C(=O)n3cccn3)cc2CN1c1cccc(-c2nncn2C2CC2)n1` [Compound 6, 2-(6-(4-cyclopropyl-4H-1,2,4-triazol-3-yl)pyridin-2-yl)-5-(1H-pyrazole-1-carbonyl)isoindolin-1-one], the 50% inhibitory concentration (IC50) was less than 0.2 µM.
In the case of `O=C(NC1CCOCC1)c1ccc2c(c1)CN(c1cccc(-c3nncn3C3CC3)n1)C2=O` [Compound 9, 2-(6-(4-cyclopropyl-4H-1,2,4-triazol-3-yl)pyridin-2-yl)-1-oxo-N-(tetrahydro-2H-pyran-4-yl)isoindoline-5-carboxamide], the IC50 was less than 0.2 µM.
The compound `O=C(c1ccc2c(c1)CN(c1cccc(-c3nncn3C3CC3)n1)C2=O)N1CCCC1` [Compound 18, 2-(6-(4-cyclopropyl-4H-1,2,4-triazol-3-yl)pyridin-2-yl)-5-(pyrrolidine-1-carbonyl)isoindolin-1-one] showed an IC50 of less than 0.2 µM.
Take `O=C(c1ccc2c(c1)CN(c1cccc(-c3nncn3C3CC3)n1)C2=O)N1CCC1` [Compound 19, 5-(azetidine-1-carbonyl)-2-(6-(4-cyclopropyl-4H-1,2,4-triazol-3-yl)pyridin-2-yl)isoindolin-1-one]: the IC50 was less than 0.2 µM.
The result for `O=C1CN(C(=O)c2ccc3c(c2)CN(c2cccc(-c4nncn4C4CC4)n2)C3=O)CCN1` [Compound 20, 2-(6-(4-cyclopropyl-4H-1,2,4-triazol-3-yl)pyridin-2-yl)-5-(3-oxopiperazine-1-carbonyl)isoindolin-1-one] reads less than 0.2 µM; that for `O=C(c1ccc2c(c1)CN(c1cccc(-c3nncn3C3CC3)n1)C2=O)N1C[C@H]2CC[C@@H](C1)O2` [Compound 21, 5-((1R,5S)-8-oxa-3-azabicyclo[3.2.1]octane-3-carbonyl)-2-(6-(4-cyclopropyl-4H-1,2,4-triazol-3-yl)pyridin-2-yl)isoindolin-1-one], less than 0.2 µM; that for `CO[C@@H]1CCN(C(=O)c2ccc3c(c2)CN(c2cccc(-c4nncn4C4CC4)n2)C3=O)C1` [Compound 22, (R)-2-(6-(4-cyclopropyl-4H-1,2,4-triazol-3-yl)pyridin-2-yl)-5-(3-methoxypyrrolidine-1-carbonyl)isoindolin-1-one], less than 0.2 µM.
The result for `COC(=O)C1CCN(C(=O)c2ccc3c(c2)CN(c2cccc(-c4nncn4C4CC4)n2)C3=O)CC1` [Compound 23, methyl 1-(2-(6-(4-cyclopropyl-4H-1,2,4-triazol-3-yl)pyridin-2-yl)-1-oxoisoindoline-5-carbonyl)piperidine-4-carboxylate] reads less than 0.2 µM; that for `O=C(c1ccc2c(c1)CN(c1cccc(-c3nncn3C3CC3)n1)C2=O)N1CCSCC1` [Compound 24, 2-(6-(4-cyclopropyl-4H-1,2,4-triazole-3-yl)pyridin-2-yl)-5-(thiomorpholine-4-carbonyl)isoindolin-1-one], less than 0.2 µM; that for `CSC1CCN(C(=O)c2ccc3c(c2)CN(c2cccc(-c4nncn4C4CC4)n2)C3=O)CC1` [Compound 25, 2-(6-(4-cyclopropyl-4H-1,2,4-triazol-3-yl)pyridin-2-yl)-5-(4-(methylthio)piperidine-1-carbonyl)isoindolin-1-one], less than 0.2 µM.
